Tests used:
[1] = test system: Human immunodeficiency virus 1; test: Antiviral activity against HIV1 infected in human assessed as change in CD4 expressing T-cell count from baseline at 400 mg, po BID for 7 days as four modified-release capsules followed by a single dose on day 8 measured on day 9 relative to pooled placebo control; format: functional
[2] = Cmax in fasted human at 800 mg, po every 24 hrs measured on day 8; format: ADME, organism-based; set-up: dose 800 mg, route oral; details: in vivo
[3] = target: T1, Solute carrier family 22 member 12 (Homo sapiens, UniProt Q96S37); test: Inhibition of human URAT-1 assessed as increase in renal uric acid excretion; set-up: species or system Kidney
T1 sequence (Q96S37 whole entry): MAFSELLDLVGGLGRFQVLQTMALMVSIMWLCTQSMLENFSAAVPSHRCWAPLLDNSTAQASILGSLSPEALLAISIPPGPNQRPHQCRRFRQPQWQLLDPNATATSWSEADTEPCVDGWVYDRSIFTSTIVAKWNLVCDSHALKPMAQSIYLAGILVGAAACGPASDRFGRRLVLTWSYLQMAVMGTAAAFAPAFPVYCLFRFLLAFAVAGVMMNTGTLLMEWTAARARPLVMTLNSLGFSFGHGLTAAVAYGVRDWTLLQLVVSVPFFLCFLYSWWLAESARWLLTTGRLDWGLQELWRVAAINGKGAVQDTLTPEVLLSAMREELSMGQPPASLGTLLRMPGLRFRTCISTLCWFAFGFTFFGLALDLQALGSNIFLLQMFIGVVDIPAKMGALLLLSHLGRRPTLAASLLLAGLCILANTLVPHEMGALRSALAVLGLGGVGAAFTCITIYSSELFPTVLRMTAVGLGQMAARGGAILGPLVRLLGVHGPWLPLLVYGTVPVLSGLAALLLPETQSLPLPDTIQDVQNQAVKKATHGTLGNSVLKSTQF

[4] = AUC (24 hrs) in fasted human at 1000 mg, po every 24 hrs measured on day 8; format: ADME, organism-based; set-up: dose 1000 mg, time < 24 hr, route oral; details: plasma
[5] = AUC (0 to 12 hrs) in human plasma at 500 mg administered as multiple doses, BID; format: ADME, organism-based; set-up: dose 500 mg, time < 12 hr
[6] = test system: Human immunodeficiency virus 1; test: Antiviral activity against HIV1 infected in fasted human assessed as decrease in log10 HIV RNA copies/ml at 600 mg, po […] followed by a single dose on day 8 measured on day 9 relative to pooled placebo control; format: functional
[7] = Tmax in fasted human at 400 mg, po every 12 hrs measured on day 8; format: ADME, organism-based; details: in vivo
[8] = Tmax in fasted human at 600 mg, po every 24 hrs measured on day 8; format: ADME, organism-based; details: in vivo
[9] = test system: Human immunodeficiency virus 1; test: Antiviral activity against HIV1 infected in fasted human assessed as decrease in log10 HIV RNA copies/ml at 400 mg, po BID for 7 days as four modified-release capsules followed by a single dose on day 8 measured on day 9 relative to pooled placebo control; format: functional
[10] = Renal clearance in human; format: ADME, organism-based, Kidney; details: in vivo, read-out: CL_renal
[11] = Drug concentration at steady state in fasted human plasma 600 mg, po every 24 hrs measured on day 8; format: ADME, organism-based; details: read-out: Drug uptake
[12] = Cmax in human plasma at 300 mg administered as multiple doses, BID; format: ADME, organism-based; set-up: dose 300 mg
[13] = Plasma protein binding in human; format: ADME, cell-free; details: read-out: PPB
[14] = test system: Human immunodeficiency virus 1; test: Antiviral activity against HIV1 infected in human assessed as change in CD4 expressing T-cell count from baseline at 600 mg, po BID for 7 days as four modified-release capsules followed by a single dose on day 8 measured on day 9 relative to pooled placebo control; format: functional
[15] = test system: Human immunodeficiency virus 1; test: Antiviral activity against HIV1 infected in fasted human assessed as decrease in plasma viral log10 RNA copies/ml at 400 mg, po BID for 7 days as four modified-release capsules followed by a single dose on day 8 measured on day 9 relative to pooled placebo control; format: functional
[16] = test system: Human immunodeficiency virus 1; test: Antiviral activity against HIV1 infected in human assessed as change in CD8 expressing T-cell count from baseline at 800 mg, po administered every day as four enteric-coated tablets followed by a single dose on day 8 measured on day 9 relative to pooled placebo control; format: functional
[17] = test system: Human immunodeficiency virus 1; test: Antiviral activity against HIV1 infected in fed human assessed as viral load decay rate as viral log10 RNA copies/ml/day at 800 mg, po administered every day as four enteric-coated tablets followed by a single dose on day 8 measured on day 9; format: functional
[18] = Plasma protein binding in dog; format: ADME, cell-free, Canis lupus familiaris; details: read-out: PPB
[19] = AUC (0 to 12 hrs) in human plasma at 300 mg administered as multiple doses, BID; format: ADME, organism-based; set-up: time < 12 hr, dose 300 mg
[20] = test system: Human immunodeficiency virus 1; test: Antiviral activity against HIV1 infected in fasted human assessed as as viral load decay rate as viral log10 RNA copies/ml/day at 1000 mg, po administered every day as five enteric-coated tablets followed by a single dose on day 8 measured on day 9; format: functional
[21] = test system: Human immunodeficiency virus 1; test: Antiviral activity against HIV1 infected in fasted human assessed as viral load decay rate as viral log10 RNA copies/ml/day at 600 mg, po BID for 7 days as four modified-release capsules followed by a single dose on day 8 measured per day for 9 days; format: functional
[22] = test system: Human immunodeficiency virus 1; test: Antiviral activity against HIV1 infected in human assessed as log reduction in HIV-1 RNA level at 800 mg, po administered every day; format: functional
Homo sapiens [23] = test: Reduction in uric acid level in healthy human serum at 800 mg, po administered every day; format: ADME, organism-based; details: in vivo
[24] = Terminal half life […] at 300 to 500 mg; format: ADME
[25] = test system: Human immunodeficiency virus 1; test: Antiviral activity against HIV1 infected in fasted human assessed as decrease in log10 HIV RNA copies/ml at 800 mg, po […] followed by a single dose on day 8 measured on day 9 relative to pooled placebo control; format: functional
[26] = Cmax in fasted human at 1000 mg, po every 24 hrs measured on day 8; format: ADME, organism-based; set-up: dose 1000 mg, route oral; details: plasma
[27] = test system: Human immunodeficiency virus 1; test: Antiviral activity against HIV1 infected in fasted human assessed as decrease in log10 HIV RNA copies/ml at 1000 mg, po […] followed by a single dose on day 8 measured on day 9 relative to pooled placebo control; format: functional
[28] = Cmax in fasted human plasma at 600 mg, po every 24 hrs measured on day 8; format: ADME, organism-based; set-up: dose 600 mg, route oral
[29] = test system: Human immunodeficiency virus 1; test: Antiviral activity against HIV1 infected in human assessed as change in CD8 expressing T-cell count from baseline at 600 mg, po BID for 7 days as four modified-release capsules followed by a single dose on day 8 measured on day 9 relative to pooled placebo control; format: functional
[30] = Drug excretion in rat urine; format: ADME, tissue-based; details: read-out: Activity
[31] = Tmax in fasted human at 1000 mg, po every 24 hrs measured on day 8; format: ADME, organism-based; details: in vivo
Homo sapiens [32] = test: Reduction in uric acid level in healthy human serum at 600 mg, po administered every day; format: functional
[33] = Plasma protein binding in rhesus monkey; format: ADME, cell-free, Macaca mulatta; details: read-out: PPB

O=C(CSc1nnc(Br)n1-c1ccc(C2CC2)c2ccccc12)Nc1ccc(C(=O)O)cc1Cl
Activity [1]: 19.22 /mm3 | Cmax [2]: 1910 ng/mL | Activity [3]: Active | AUC at 24 h [4]: 17400 ng·h/mL | AUC at 12 h [5]: 3770 ng·h/mL | Activity [6]: -1.394 mL⁻¹ | Tmax [7]: 1.5 h | Tmax [8]: 2 h | Activity [9]: -1.948 mL⁻¹ | CL renal [10]: ≤ 1 mL/min | concentration at 24 h [11]: 276 ng/mL | Cmax [12]: 667 ng/mL | fraction unbound [13]: < 0.01 | Activity [14]: -14.44 /mm3 | Activity [15]: -2.0608 mL⁻¹ | Activity [16]: 79.41 /mm3 | Activity [17]: -0.2 mL⁻¹ | fraction unbound [18]: < 0.01 | AUC at 12 h [19]: 3160 ng·h/mL | Activity [20]: -0.22 mL⁻¹ | Activity [21]: -0.18 mL⁻¹ | Activity [22]: 0.5 mL⁻¹ | Activity (Homo sapiens [23]): 58 µmol/L | half-life [24]: 10.4 h | Activity [25]: -1.619 mL⁻¹ | Cmax [26]: 3700 ng/mL | Activity [27]: -1.696 mL⁻¹ | Cmax [28]: 2420 ng/mL | Activity [29]: 64.54 /mm3 | dose excreted [30]: < 0.06% | Tmax [31]: 3 h | Activity (Homo sapiens [32]): 81 µmol/L | fraction unbound [33]: < 0.01

From ChEMBL document CHEMBL1629701, “Phase 2a randomized controlled trial of short-term activity, safety, and pharmacokinetics of a novel nonnucleoside reverse transcriptase inhibitor, RDEA806, in HIV-1-positive, antiretroviral-naive subjects” (Antimicrob Agents Chemother, 2010)
